As a reminder, the inhibition is the drop in the measured response relative to a control, in per cent.

Experimental findings from patent publication US8435978B2, “Substituted sulfonamide compounds” (Gruenenthal GmbH, priority 2006, dated 2013) are described below.

One assay addresses T1, human B1R receptor (Homo sapiens, UniProt P46663).
T1 construct: host or cells: CHO K1 cells (Chinese hamster ovary), stably transfected
T1 sequence (P46663 1-353): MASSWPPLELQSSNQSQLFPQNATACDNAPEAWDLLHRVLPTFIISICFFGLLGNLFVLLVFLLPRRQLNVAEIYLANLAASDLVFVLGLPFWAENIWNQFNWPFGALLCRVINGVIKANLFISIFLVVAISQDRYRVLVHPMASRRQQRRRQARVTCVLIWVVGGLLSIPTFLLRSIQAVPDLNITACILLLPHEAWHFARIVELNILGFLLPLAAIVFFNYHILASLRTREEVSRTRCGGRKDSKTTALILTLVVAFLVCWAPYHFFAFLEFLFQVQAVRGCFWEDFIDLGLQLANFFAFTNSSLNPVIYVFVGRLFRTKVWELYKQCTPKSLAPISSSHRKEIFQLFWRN
Kind of assay: Functional study on the bradykinin receptor 1 (B1R), FLIPR Ca2+ assay, hB1R cells. The format is cell-based. The settings on record: CHO-K1, test substance 10 μM, agonist Lys-Des-Arg9-bradykinin 0.5 nM, % inhibition compared with the maximum achievable inhibition, read-out: B1R Antagonism, human [10 μM] % Inhibition. The gist of the method: (§1)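 CHO K1 cells stably expressing human or rat B1R were loaded with Fluo-4 and read on a FLIPR (ex 488/em 540 nm, peak fluorescence). Test compounds at 10 μM were added first, then after 10 min agonist: Lys-Des-Arg9-bradykinin 0.5 nM for hB1R, Des-Arg9-bradykinin 100 nM for rB1R; % inhibition versus maximum inhibition.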

For another assay, the target named is T2, B1R receptor of the rat (Rattus norvegicus, UniProt P97583).
T2 construct: host or cells: CHO K1 cells (Chinese hamster ovary), stably transfected
T2 sequence (P97583 1-337): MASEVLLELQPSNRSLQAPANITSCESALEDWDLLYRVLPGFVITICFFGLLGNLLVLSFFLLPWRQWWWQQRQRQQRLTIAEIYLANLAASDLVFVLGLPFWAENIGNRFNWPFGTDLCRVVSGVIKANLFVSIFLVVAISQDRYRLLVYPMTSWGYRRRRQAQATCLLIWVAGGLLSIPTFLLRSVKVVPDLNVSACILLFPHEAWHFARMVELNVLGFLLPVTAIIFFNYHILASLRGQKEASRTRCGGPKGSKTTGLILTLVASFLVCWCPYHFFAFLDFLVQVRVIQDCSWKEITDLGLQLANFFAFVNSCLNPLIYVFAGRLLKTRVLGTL
As to the kind of experiment: Functional study on the bradykinin receptor 1 (B1R), FLIPR Ca2+ assay, rB1R cells. Format: cell-based. The settings on record: CHO-K1, test substance 10 μM, agonist Des-Arg9-bradykinin 100 nM, % inhibition compared with the maximum achievable inhibition, read-out: B1R Antagonism, rat [10 μM] % Inhibition. The gist of the method: as §1

With `CN(C(=O)COCC1CCCCN1S(=O)(=O)c1c(Cl)cccc1Cl)[C@H]1CCN(Cc2ccccc2)C1` (stereo partly drawn) [Example 315, N—((S)-1-benzylpyrrolidin-3-yl)-2-((1-(2,6-dichlorophenylsulfonyl)piperidin-2-yl)methoxy)-N-methylacetamide], the inhibition at 10 µM came out at 105% on human B1R receptor and 101% at B1R receptor of the rat.
For `COc1cc(C)c(S(=O)(=O)N2CCCCC2COCC(=O)N2CCN(c3ccccn3)CC2)c(C)c1` (centres unmarked) [Example 369, 2-((1-(4-methoxy-2,6-dimethylphenylsulfonyl)piperidin-2-yl)methoxy)-1-(4-(pyridin-2-yl)piperazin-1-yl)ethanone], in that order: 82.3% and 101%.
The like results for `CC(C)N(CCN1CCN(C(=O)COCC2CCCN2S(=O)(=O)c2c(Cl)cc(Cl)cc2Cl)CC1)C(C)C` (centres unmarked) [Example 333, 1-(4-(2-(diisopropylamino)ethyl)piperazin-1-yl)-2-((1-(2,4,6-trichlorophenylsulfonyl)pyrrolidin-2-yl)methoxy)ethanone] were, in that order, 107% and 101%.
For the compound `COc1cc(C)c(S(=O)(=O)N2CCCCC2COCC(=O)Nc2cc(-c3ccccc3OC)[nH]n2)c(C)c1` (centres unmarked) [Example 540, 2-((1-(4-methoxy-2,6-dimethylphenylsulfonyl)piperidin-2-yl)methoxy)-N-(5-(2-methoxyphenyl)-1H-pyrazol-3-yl)acetamide], the inhibition at 10 µM is 7.17% at human B1R receptor and 100% on B1R receptor of the rat.
For `COc1cc(C)c(S(=O)(=O)N2CCCCC2COCC(=O)Nc2ccc(-n3ccnc3C)cc2)c(C)c1` (centres unmarked) [Example 427, 2-((1-(4-methoxy-2,6-dimethylphenylsulfonyl)piperidin-2-yl)methoxy)-N-(4-(2-methyl-1H-imidazol-1-yl)phenyl)acetamide], the inhibition at 10 µM at human B1R receptor is 102%; at B1R receptor of the rat, 98.8%.
For the compound `Cc1cc(C)c(S(=O)(=O)N2Cc3ccccc3CC2COCC(=O)NCc2ccccc2N2CCN(C)CC2)c(C)c1` (centres unmarked) [Example 75, N-[2-(4-methyl-piperazin-1-yl)-benzyl]-2-[2-(2,4,6-trimethyl-phenylsulfonyl)-1,2,3,4-tetrahydro-isoquinolin-3-ylmethoxy]-acetamide], the values for the inhibition at 10 µM on human B1R receptor and on B1R receptor of the rat were 50.1% and 9.11%, respectively.
With `COc1cc(C)c(S(=O)(=O)N2CCCC2COCC(=O)NCCCCN2CCCC2)c(C)c1` (centres unmarked) [Example 523, 2-((1-(4-methoxy-2,6-dimethylphenylsulfonyl)pyrrolidin-2-yl)methoxy)-N-(4-(pyrrolidin-1-yl)butyl)acetamide], the inhibition at 10 µM was found to be 66.4% at human B1R receptor and 101% on B1R receptor of the rat.
For `COc1cc(C)c(S(=O)(=O)N2CCCCC2COCC(=O)N2CCN(Cc3ccc(Cl)cc3)CC2)c(C)c1` (centres unmarked) [Example 384, 1-(4-(4-chlorobenzyl)piperazin-1-yl)-2-((1-(4-methoxy-2,6-dimethylphenylsulfonyl)piperidin-2-yl)methoxy)ethanone], in that order: 105% and 98.6%.
`O=C(COCC1CCCN1S(=O)(=O)c1c(Cl)cc(Cl)cc1Cl)N1CCC(N2CCOCC2)CC1` (centres unmarked) [Example 297, 1-(4-morpholinopiperidin-1-yl)-2-((1-(2,4,6-trichlorophenylsulfonyl)pyrrolidin-2-yl)methoxy)ethanone]: the figures for the inhibition at 10 µM on human B1R receptor and at B1R receptor of the rat were 106% and 103%, respectively.
The like results for `COc1ccc(S(=O)(=O)N2c3ccccc3CC2COCC(=O)N2CCC(CCN3CCCCC3)CC2)cc1` (centres unmarked) [Example 547, 2-((1-(4-methoxyphenylsulfonyl)indolin-2-yl)methoxy)-1-(4-(2-(piperidin-1-yl)ethyl)piperidin-1-yl)ethanone] were, in that order, 77.4% and 100%.
Turning to `COc1ccc(N2CCN(C(=O)COCC3CCCN3S(=O)(=O)c3c(Cl)cccc3Cl)CC2)cc1` (centres unmarked) [Example 325, 2-((1-(2,6-dichlorophenylsulfonyl)pyrrolidin-2-yl)methoxy)-1-(4-(4-methoxyphenyl)piperazin-1-yl)ethanone], the figures for the inhibition at 10 µM at human B1R receptor and at B1R receptor of the rat were 102% and 101%, respectively.
For the compound `COc1cc(C)c(S(=O)(=O)N2CCCCC2COCC(=O)N2CCCN(Cc3ccccc3)CC2)c(C)c1` (centres unmarked) [Example 362, 1-(4-benzyl-1,4-diazepan-1-yl)-2-((1-(4-methoxy-2,6-dimethylphenylsulfonyl)piperidin-2-yl)methoxy)ethanone], the inhibition at 10 µM turned out to be 103% on human B1R receptor and 102% on B1R receptor of the rat.
For `COc1cc(OC)cc(N2CCN(C(=O)COCC3CCCCN3S(=O)(=O)c3c(Cl)cc(Cl)cc3Cl)CC2)c1` (centres unmarked) [Example 253, 1-(4-(3,5-dimethoxyphenyl)piperazin-1-yl)-2-((1-(2,4,6-trichlorophenylsulfonyl)piperidin-2-yl)methoxy)ethanone], in that order: 59.3% and 101%.
For `O=C(COCC1CCCN1S(=O)(=O)c1c(Cl)cccc1Cl)N1CCN(c2ccc(Cl)c(Cl)c2)CC1` (centres unmarked) [Example 356, 1-(4-(3,4-dichlorophenyl)piperazin-1-yl)-2-((1-(2,6-dichlorophenylsulfonyl)pyrrolidin-2-yl)methoxy)ethanone], in that order: 43% and 103%.
In the case of `COc1cc(C)c(S(=O)(=O)N2CCCC2COCC(=O)N2CCN(C)CC2c2ccccc2)c(C)c1` (centres unmarked) [Example 445, 2-((1-(4-methoxy-2,6-dimethylphenylsulfonyl)pyrrolidin-2-yl)methoxy)-1-(4-methyl-2-phenylpiperazin-1-yl)ethanone], the inhibition at 10 µM at human B1R receptor was found to be 102%; at B1R receptor of the rat it was 98.6%.
Turning to `COc1cc(C)c(S(=O)(=O)N2CCCCC2COCC(=O)N2CCN(C3CCOCC3)CC2)c(C)c1` (centres unmarked) [Example 104, 2-((1-(4-methoxy-2,6-dimethylphenylsulfonyl)piperidin-2-yl)methoxy)-1-(4-(tetrahydro-2H-pyran-4-yl)piperazin-1-yl)ethanone], the figures for the inhibition at 10 µM on human B1R receptor and at B1R receptor of the rat were 105% and 101%, respectively.
As for `Cc1cc(C)c(S(=O)(=O)N2Cc3ccccc3CC2COCC(=O)N2CCN(CCCN(C)C)CC2)c(C)c1` (centres unmarked) [Example 25, 1-[4-(3-dimethylamino-propyl)-piperazin-1-yl]-2-[2-(2,4,6-trimethyl-phenylsulfonyl)-1,2,3,4-tetrahydro-isoquinolin-3-ylmethoxy]-ethanone], the inhibition at 10 µM on human B1R receptor was 91%; at B1R receptor of the rat it was 80.6%.
As to `O=C(COCC1CCCCN1S(=O)(=O)c1c(Cl)cc(Cl)cc1Cl)N(C1CC1)C1CCN(Cc2ccccc2)CC1` (centres unmarked) [Example 255, N-(1-benzylpiperidin-4-yl)-N-cyclopropyl-2-((1-(2,4,6-trichlorophenylsulfonyl)piperidin-2-yl)methoxy)acetamide], the inhibition at 10 µM turned out to be 105% at human B1R receptor and 101% at B1R receptor of the rat.
On to `CCN(Cc1ccncc1)C(=O)COCC1CCCCN1S(=O)(=O)c1c(Cl)cccc1Cl` (centres unmarked) [Example 482, 2-((1-(2,6-dichlorophenylsulfonyl)piperidin-2-yl)methoxy)-N-ethyl-N-(pyridin-4-ylmethyl)acetamide], for which the figures for the inhibition at 10 µM at human B1R receptor and at B1R receptor of the rat were 97.9% and 102%, respectively.
For the compound `CN1CCC(N2CCN(C(=O)COCC3CCCCN3S(=O)(=O)c3ccc(Cl)c(Cl)c3)CC2)CC1` (centres unmarked) [Example 32, 2-[1-(3,4-dichloro-phenylsulfonyl)-piperidin-2-ylmethoxy]-1-[4-(1-methyl-piperidin-4-yl)-piperazin-1-yl]-ethanone], the inhibition at 10 µM at human B1R receptor stood at 83.3%; on B1R receptor of the rat, 63.3%.
Take `COc1cc(C)c(S(=O)(=O)N2CCCCC2COCC(=O)N(C)C(CN2CCCC2)c2ccccc2)c(C)c1` (centres unmarked) [Example 241, 2-((1-(4-methoxy-2,6-dimethylphenylsulfonyl)piperidin-2-yl)methoxy)-N-methyl-N-(1-phenyl-2-(pyrrolidin-1-yl)ethyl)acetamide]: the inhibition at 10 µM at human B1R receptor was 104%; on B1R receptor of the rat, 99.3%.
With `COc1cc(C)c(S(=O)(=O)N2CCCCC2COCC(=O)N(C)CCC2CCC(N3CCCC3)CC2)c(C)c1` (centres unmarked) [Example 194, 2-((1-(4-methoxy-2,6-dimethylphenylsulfonyl)piperidin-2-yl)methoxy)-N-methyl-N-(2-(4-(pyrrolidin-1-yl)cyclohexyl)ethyl)acetamide], the inhibition at 10 µM at human B1R receptor was 103%; on B1R receptor of the rat, 100%.
